Data taken from patent publication US12171758B1, “Crystalline salt forms of kappa opioid receptor antagonist and products and methods related thereto” (Neumora Therapeutics, Inc., priority 2023, dated 2024).
Where “and” joins values, the source holds several entries; their conditions need not be identical. Identical values can stand only once.

How the values were obtained:
Format in all cases: physicochemical
[1] = Molar extinction coefficient (MEC) to evaluate photo reactivity; conditions: for MEC Ave.: average of duplicate
Description: The actual weight was recorded. The solid was dissolved and diluted to volume with ACN:H2O (1:1, v/v). Stock solutions were prepared in duplicate. The stock solutions were diluted by 50 times by transferring 1 mL of stock solution into 50-mL volumetric flask and then diluted to volume with ACN/water ACN:H2O (1:1, v/v). The 1/50 solutions were used to collect spectra with full wave scanning from 190 nm to 700 nm and absorbance at 235 nm, 270 nm, 290 nm and 365 nm using spectrophotometer with the background subtracted. MEC was then calculated by the following equation: MEC(L mol−1 cm−1)=Absorbance/conc.(mol/L)/Cell length(cm) Log D7.6 Measurements Preparation of Solvents • 0.1 M KH2PO4: 1.36 g of solid KH2PO4 was added into a 100-mL volumetric flask, the solid was dissolved with ultrapure water and diluted to volume. • 0.1 M K2HPO4: 1.73 g of solid K2HPO4 was added into a 100-mL volumetric flask, the solid was dissolved with ultrapure water and diluted to volume. • 100 mL of 0.1 M K2HPO4 solution and 30 mL of 0.1 M KH2PO4 was transferred to a 250-mL beaker and mixed. Then, pH was adjusted 7.4 with the KH2PO4 solution. • Octanol and aqueous buffer were pre-equilibrated by adding 10 mL octanol and 10 mL aqueous buffer into a 20-mL glass vial and agitating the vial for 24 hrs. The mutually saturated octanol and aqueous buffer were then separated after phase separation. Sample Set up • Approximately 1.0 mg solids were weighted into a 3-mL glass vial with 1.0 mL of octanol inside, and dissolution was accelerated by ultrasonication. Then, 1.0 mL of complementary aqueous buffer was added into the vial. Samples were prepared in triplicate. The glass vial was sealed and mixed on a rotary mixer at 25° C. for 24 hrs. Sample Analysis and Data Calculation • After phase separated, the phases were physically separated, and the concentrations of compounds in each phase were determined by HPLC using the HPLC conditions and parameters in Table 5. • Distribution coefficient, referred to as Dow, was calculated as the concentration of the test compound (both ionized and unionized) in the octanol phase divided by the corresponding concentration in the aqueous phase. Log D7.6 was calculated as an average of the log 10 of Dow based on three runs. Solubility/Stability Measurements in pH Buffers Stock Solution Preparation • 0.2 M Hydrochloric Acid: 166 μL of 12 M hydrochloric acid is added into a 10-mL volumetric flask, and the resulting mixture was diluted to volume with purified water and mixed. • 0.2 M Sodium Hydroxide: 80.0 mg of sodium hydroxide was weighted into a 10-mL volumetric flask. The solid was dissolved with volume of purified water, diluted to volume and mixed. • 0.2 M Potassium Chloride: 148.8 mg of potassium chloride was weighted into a 10-mL volumetric flask. The solid was dissolved with volume of purified water, diluted to volume and mixed. • 0.2 M Potassium Phosphate, Monobasic: 271.5 mg of monobasic potassium phosphate (KH2PO4) was weighed into a 10-mL volumetric flask. The solid was dissolved with appropriate volume of purified water, diluted to volume and mixed. • 0.2 M Boric Acid and Potassium Chloride: 124.3 mg of boric acid (H3BO3) and 149.5 mg of potassium chloride (KCl) were mixed into a 10-mL volumetric flask. The solid was dissolved with appropriate volume of purified water, diluted to volume and mixed. pH Buffers Preparation • 50 mM KCl pH 2.0 buffer: 2.5 mL of 0.2 M potassium chloride solution and 0.65 mL of 0.2 M hydrochloric acid solution were transferred to a 10-mL volumetric flask. Purified water is added to the target volume, and pH is adjusted to 2.0. The mixture was then diluted to volume with purified water, mixed, and pH was measured with a pH meter. • 50 mM citrate pH 4.0 buffer: 65.3 mg of citric acid (monohydrate) and 56.9 mg of sodium citrate (dihydrate) were transferred to a 10-mL volumetric flask, purified water was added to obtain the target volume, and pH was adjust to 4.0. […]

[2] = Log D7.6 shake-flask (octanol/phosphate buffer) and Log P calculation; conditions: pH 7.6
Description: The actual weight was recorded. The solid was dissolved and diluted to volume with ACN:H2O (1:1, v/v). Stock solutions were prepared in duplicate. The stock solutions were diluted by 50 times by transferring 1 mL of stock solution into 50-mL volumetric flask and then diluted to volume with ACN/water ACN:H2O (1:1, v/v). The 1/50 solutions were used to collect spectra with full wave scanning from 190 nm to 700 nm and absorbance at 235 nm, 270 nm, 290 nm and 365 nm using spectrophotometer with the background subtracted. MEC was then calculated by the following equation: MEC(L mol−1 cm−1)=Absorbance/conc.(mol/L)/Cell length(cm) Log D7.6 Measurements Preparation of Solvents • 0.1 M KH2PO4: 1.36 g of solid KH2PO4 was added into a 100-mL volumetric flask, the solid was dissolved with ultrapure water and diluted to volume. • 0.1 M K2HPO4: 1.73 g of solid K2HPO4 was added into a 100-mL volumetric flask, the solid was dissolved with ultrapure water and diluted to volume. • 100 mL of 0.1 M K2HPO4 solution and 30 mL of 0.1 M KH2PO4 was transferred to a 250-mL beaker and mixed. […] Sample Analysis and Data Calculation • After phase separated, the phases were physically separated, and the concentrations of compounds in each phase were determined by HPLC using the HPLC conditions and parameters in Table 5. • Distribution coefficient, referred to as Dow, was calculated as the concentration of the test compound (both ionized and unionized) in the octanol phase divided by the corresponding concentration in the aqueous phase. Log D7.6 was calculated as an average of the log 10 of Dow based on three runs. […] The mixture was then diluted to volume with purified water, mixed, and pH was measured with a pH meter. • 50 mM citrate pH 4.0 buffer: 65.3 mg of citric acid (monohydrate) and 56.9 mg of sodium citrate (dihydrate) were transferred to a 10-mL volumetric flask, purified water was added to obtain the target volume, and pH was adjust to 4.0. […]

[3] = pKa measurement (Sirius T3, Yasuda-Shedlovsky extrapolation); conditions: Sirius T3, MeOH and KCl solution, pH 2 to 12, Yasuda-Shedlovsky extrapolation
Description: pKa Measurements pKa measurements were taken using a Sirius T3 instrument in a solvent (MeOH and KCl solution). The process ran from low to high pH (2 to 12). MEC Measurements

[4] = Solubility measurement in organic solvents at 25° C. for 24 hours; conditions: for solubility at 24 h: organic solvent or mixture, thermodynamic from solid; for Final form of residual solids: XRPD

## CCc1cc(F)c2nc(N3CCC(NC4CCOCC4)CC3)c(-c3nc(C)no3)c(C)c2c1.Cl [HCl salt Type A, 1-(6-ethyl-8-fluoro-4-methyl-3-(3-methyl-1,2,4-oxadiazol-5-yl)quinolin-2-yl)-N-(tetrahydro-2H-pyran-4-yl)piperidin-4-amine hydrochloride]
[1]; 235 nm
  MEC Ave.: 26184.9 L/mol/cm
[1]; 235 nm, single solution, ACN:H2O (1:1, v/v), hydrochloride
  MEC: 26246.5 L/mol/cm and 26123.4 L/mol/cm
[1]; 270 nm
  MEC Ave.: 29997.1 L/mol/cm
[1]; 270 nm, single solution, ACN:H2O (1:1, v/v), hydrochloride
  MEC: 30005.4 L/mol/cm and 29988.9 L/mol/cm
[1]; 290 nm
  MEC Ave.: 13591.0 L/mol/cm
[1]; 290 nm, single solution, ACN:H2O (1:1, v/v), hydrochloride
  MEC: 13615.7 L/mol/cm and 13566.4 L/mol/cm
[1]; 365 nm
  MEC Ave.: 2162.6 L/mol/cm
[1]; 365 nm, single solution, ACN:H2O (1:1, v/v), hydrochloride
  MEC: 2207.7 L/mol/cm and 2117.4 L/mol/cm
[1]; at all selected wavelength
  MEC: > 1000 L/mol/cm
[2]; 24 h
  Average of Log D7.6: 2.87
[2]; calculated: Log D7.6 + lg[1+10^(pKa-pH)]
  logP: 4
[2]
  logD: 2.87
[3]
  pKa: 8.68
[4]; 25 °C, nonpolar solvents (hexane, heptane and toluene)
  solubility at 24 h: < 88 µg/mL
[4]; 25 °C, polar solvents (DMSO and MeOH)
  solubility at 24 h: > 24900 µg/mL
[4]; Acetone, 24 hrs
  Final form of residual solids: HCl salt Type A
[4]; DMSO, 24 hrs, hydrochloride
  Final form of residual solids: Amorphous form
[4]; DMSO, 24 hrs, listed as HCl Salt Type A, hydrochloride
  Final form of residual solids: Amorphons
[4]; EtOAc (printed EtQAc), 24 hrs
  Final form of residual solids: HCl salt Type A
[4]; EtOH, 24 hrs
  Final form of residual solids: HCl salt Type A
[4]; Heptane, 24 hrs
  Final form of residual solids: HCl salt Type A
[4]; Hexane, 24 hrs
  Final form of residual solids: HCl salt Type A
[4]; IPA, 24 hrs
  Final form of residual solids: HCl salt Type A
[4]; MeOH, 24 hrs
  Final form of residual solids: HCl salt Type A
[4]; Toluene, 24 hrs
  Final form of residual solids: HCl salt Type A
[4]; ethanol, EtOH, 25° C., 24 hrs
  solubility at 24 h: 3500 µg/mL
[4]; methanol, MeOH, 25° C., 24 hrs
  solubility at 24 h: 24900 µg/mL
[4]; Acetone, 25° C., 24 hrs
  solubility at 24 h: 91 µg/mL
[4]; DMSO, 25° C., 24 hrs
  solubility at 24 h: 33500 µg/mL
[4]; EtOAc (printed EtQAc), 25° C., 24 hrs
  solubility at 24 h: 11 µg/mL
[4]; Heptane, 25° C., 24 hrs
  solubility at 24 h: 0.8 µg/mL
[4]; Hexane, 25° C., 24 hrs
  solubility at 24 h: 0.4 µg/mL
[4]; Toluene, 25° C., 24 hrs
  solubility at 24 h: 8.8 µg/mL
[4]; organic solvents other than DMSO
  form change: No form change
